The values below are quoted from earlier work in PubChem BioAssay AID1259409 (Chemical Carcinogenesis Research Information System (CCRIS), 2018).

This series deals with rodent chemically induced tumor inhibition, incidence and multiplicity. In words: CCRIS tumor inhibitor studies.

Consider `CC1(C)[C@@H](O[C@H]2O[C@H](C(=O)O)[C@@H](O)[C@H](O)[C@H]2O[C@@H]2O[C@H](C(=O)O)[C@@H](O)[C@H](O)[C@H]2O)CC[C@]2(C)[C@H]3C(=O)C=C4[C@@H]5C[C@@](C)(C(=O)O)CC[C@]5(C)CC[C@@]4(C)[C@]3(C)CC[C@@H]12`, for which the “tumour outcome (control, treated, inhibition, significance)” value reads like this: (Carcinogen: 7,12-DIMETHYLBENZ[A]ANTHRACENE, 57-97-6, Dose [Inhibitor]: 0, 0.05% IN DRINKING WATER BEGINNING 50 D PRIOR TO CARCINOGEN TREATMENT AND CONTINUING FOR THE DURATION OF STUDY (STUDY, Route [Inhibitor]: ORAL, Species: MOUSE, Strain/Sex: SENCAR/FEMALE, Target Tissue: Type of Lesion: SKIN: TUMOR, Dose [Carcinogen]: 40 NMOL IN 0.2 ML ACETONE ONCE, Promoter: 12-O-TETRADECANOYLPHORBOL-13-ACETATE, 16561-29-8) 100%, 100%, 0%, not significant; (Carcinogen: 7,12-DIMETHYLBENZ[A]ANTHRACENE, 57-97-6, Dose [Inhibitor]: 0, 0.05% IN DRINKING WATER FOR 50 D PRIOR TO CARCINOGEN TREATMENT (STUDY DURATION: 23 WK), Route [Inhibitor]: ORAL, Species: MOUSE, Strain/Sex: SENCAR/FEMALE, Target Tissue: Type of Lesion: SKIN: TUMOR, Dose [Carcinogen]: 40 NMOL IN 0.2 ML ACETONE ONCE, Promoter: 12-O-TETRADECANOYLPHORBOL-13-ACETATE, 16561-29-8) 100%, 100%, 0%, not significant; (Carcinogen: DIETHYLNITROSAMINE, 55-18-5, Dose [Inhibitor]: 0, 2 MG 3/WK FOR 32 WK BEGINNING 2 WK PRIOR TO CARCINOGEN TREATMENT (STUDY DURATION:32 WK), Route [Inhibitor]: INTRAMUSCULAR, Species: MOUSE, Strain/Sex: BALB/MALE, Target Tissue: Type of Lesion: LIVER :HEPATOCELLULAR CARCINOMA, Dose [Carcinogen]: 75 MG/KG 1/WK FOR 3 WK THEN 100 MG/KG 1/WK FOR 3 WK, Promoter: NONE USED) 7/11 (64%), 3.14 (21%), 65%, p<0.05.

For `C=CCN=C=S`, the “tumour outcome (control, treated, inhibition, significance)” value is recorded as 100%, 100%, 0%, not significant (Carcinogen: 4-(METHYLNITROSAMINO)-1-(3-PYRIDYL)-1-BUTANONE, 64091-91-4, Dose [Inhibitor]: 0, 1 UMOL ONCE 2 HR PRIOR TO CARCINOGEN DOSE (STUDY DURATION: 16 WK), Route [Inhibitor]: GAVAGE, Species: MOUSE, Strain/Sex: STRAIN-A/FEMALE, Target Tissue: Type of Lesion: LUNG: ADENOMA, Dose [Carcinogen]: 10 UMOL IN 0.1 ML SALINE ONCE, Promoter: NONE USED) and 100%, 100%, 0%, not significant (Carcinogen: 4-(METHYLNITROSAMINO)-1-(3-PYRIDYL)-1-BUTANONE, 64091-91-4, Dose [Inhibitor]: 0, 5 UMOL ONCE 2 HR PRIOR TO CARCINOGEN DOSE (STUDY DURATION: 16 WK), Route [Inhibitor]: GAVAGE, Species: MOUSE, Strain/Sex: STRAIN-A/FEMALE, Target Tissue: Type of Lesion: LUNG: ADENOMA, Dose [Carcinogen]: 10 UMOL IN 0.1 ML SALINE ONCE, Promoter: NONE USED).

On to `CC/C=C\C/C=C\C/C=C\C/C=C\C/C=C\CCCC(=O)O`, for which the “tumour outcome (control, treated, inhibition, significance)” value reads like this: (Carcinogen: 7,12-DIMETHYLBENZ[A]ANTHRACENE, 57-97-6, Dose [Inhibitor]: 0, 0.5 ML 2/WK FOR 19 WK BEGINNING 1 WK POST CARCINOGEN DOSE ADMINISTERED TO RATS FED HIGH-FAT (20% CORN OIL) DIETS (STU, Route [Inhibitor]: GAVAGE, Species: RAT, Strain/Sex: SPRAGUE-DAWLEY/FEMALE, Target Tissue: Type of Lesion: MAMMARY GLAND: ADENOCARCINOMA, Dose [Carcinogen]: 5 MG ONCE AT 50 D OF AGE, Promoter: NONE USED) 24/30 (80%), 10/24 (42%), 48%, p<0.05; (Carcinogen: AZOXYMETHANE, 25843-45-2, Dose [Inhibitor]: 4.7% (VOL/VOL) IN 5% FAT DIET CONTAINING 0.3% LINOLEIC ACID FOR DURATION OF STUDY (STUDY DURATION: 26 WK), Route [Inhibitor]: ORAL, Species: RAT, Strain/Sex: DONRYU/MALE, Target Tissue: Type of Lesion: COLON: ADENOCARCINOMA, Dose [Carcinogen]: 7.4 MG/KG BW IN 0.9% SALINE SOLUTION 1/WK FOR FIRST 11 WK, Promoter: NONE USED) 20/29 (69%), 10/30 (33%), 52%, p<0.01.

Take `CCOC(=S)S`: the “tumour outcome (control, treated, inhibition, significance)” value is given as 12/14 (86%), 10/14 (71%), 16%, p>0.05 (Carcinogen: N-NITROSO-DIETHYLAMINE, 55-18-5, Dose [Inhibitor]: 12.5 MG/KG IN DRINKING WATER ADMINISTERED SIMULTANEOUSLY WITH CARCINOGEN (STUDY DURATION: 28 WK), Route [Inhibitor]: ORAL, Species: RAT, Strain/Sex: BD6/MALE, Target Tissue: Type of Lesion: LIVER: TUMOR, Dose [Carcinogen]: 80 MG/KG 1/WK FOR 10 WK, Promoter: NONE USED) and 12/14 (86%), 6/12 (50%), 42%, p<0.05 (Carcinogen: N-NITROSO-DIETHYLAMINE, 55-18-5, Dose [Inhibitor]: 25 MG/KG IN DRINKING WATER PLUS 100 MG/KG 1 HR BEFORE CARCINOGEN ADMINISTERED SIMULTANEOUSLY WITH CARCINOGEN (STUDY DURA, Route [Inhibitor]: ORAL, Species: RAT, Strain/Sex: BD6/MALE, Target Tissue: Type of Lesion: LIVER: TUMOR, Dose [Carcinogen]: 80 MG/KG 1/WK FOR 10 WK, Promoter: NONE USED).
